From publication PMC10341573, “Design, Synthesis, and Biological Evaluation of Novel Quinazolin-4(3H)-One-Based Histone Deacetylase 6 (HDAC6) Inhibitors for Anticancer Activity” (International Journal of Molecular Sciences, 2023)

Legend:
HDAC6 = molecular target: T1, HDAC6 (Homo sapiens, UniProt Q9UBN7); assay: HDAC enzyme activity assay (fluorogenic, Boc-Lys(acetyl)-AMC), HDAC6; format: biochemical; conditions: class IIb HDAC6; mean ± SD, triplicate
T1 construct: Full-length recombinant HDAC6 was purchased from BPS Bioscience; purchased BPS Bioscience
T1 sequence (Q9UBN7 1-1215): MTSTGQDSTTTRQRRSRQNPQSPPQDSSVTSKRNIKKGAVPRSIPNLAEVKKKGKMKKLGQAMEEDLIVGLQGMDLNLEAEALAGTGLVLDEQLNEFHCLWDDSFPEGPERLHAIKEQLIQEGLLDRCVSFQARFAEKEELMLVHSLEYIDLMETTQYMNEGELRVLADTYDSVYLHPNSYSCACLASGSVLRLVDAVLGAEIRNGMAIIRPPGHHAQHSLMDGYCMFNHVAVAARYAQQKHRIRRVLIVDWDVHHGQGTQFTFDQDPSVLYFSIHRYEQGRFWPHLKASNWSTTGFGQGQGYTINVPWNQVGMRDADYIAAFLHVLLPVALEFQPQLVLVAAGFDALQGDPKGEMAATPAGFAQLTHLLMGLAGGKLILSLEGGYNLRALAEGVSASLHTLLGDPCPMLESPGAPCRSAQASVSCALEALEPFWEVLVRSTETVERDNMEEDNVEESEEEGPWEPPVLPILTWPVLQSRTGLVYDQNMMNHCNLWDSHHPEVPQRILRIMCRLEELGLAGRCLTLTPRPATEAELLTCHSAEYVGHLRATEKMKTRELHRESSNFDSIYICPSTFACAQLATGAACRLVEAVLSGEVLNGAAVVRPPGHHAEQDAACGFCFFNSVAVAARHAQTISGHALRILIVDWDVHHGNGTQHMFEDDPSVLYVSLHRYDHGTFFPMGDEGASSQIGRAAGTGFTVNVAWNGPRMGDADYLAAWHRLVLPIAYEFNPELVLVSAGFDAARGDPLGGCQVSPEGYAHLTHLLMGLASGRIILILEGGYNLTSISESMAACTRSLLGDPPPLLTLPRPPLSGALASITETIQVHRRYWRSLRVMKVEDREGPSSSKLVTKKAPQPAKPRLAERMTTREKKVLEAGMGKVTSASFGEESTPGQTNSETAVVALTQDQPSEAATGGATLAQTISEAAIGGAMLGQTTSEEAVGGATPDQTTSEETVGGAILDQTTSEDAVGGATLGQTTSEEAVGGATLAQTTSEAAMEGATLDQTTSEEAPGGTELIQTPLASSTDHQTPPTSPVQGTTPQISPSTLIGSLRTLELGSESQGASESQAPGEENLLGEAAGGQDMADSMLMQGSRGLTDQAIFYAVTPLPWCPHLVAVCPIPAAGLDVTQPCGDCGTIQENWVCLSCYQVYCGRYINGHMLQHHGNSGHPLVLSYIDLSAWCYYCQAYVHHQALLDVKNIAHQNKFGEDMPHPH

HCT116 = assay: MTT cell proliferation assay, HCT116; format: cell-based, human; conditions: Homo sapiens, HCT-116; MTT, 72 h; mean ± SD, triplicate; read-out: IC50 ± SD HCT116
MCF7 and HCT-116 cells = assay: Acridine orange staining and fluorescence imaging; format: cell-based, human; conditions: 48 h
Description: The control had intact nuclei, as depicted by the green fluorescence due to AO binding to dsDNA, in contrast to the apoptotic nuclei of 5c-treated cells depicted by orange fluorescence due to AO staining of ssDNA and RNA. This observation was supported by the protein expression of cleaved poly (ADP-ribose) polymerase (PARP), which represents the degree of apoptosis in cells, as shown in Figure 9B. […] Acridine orange (AO) staining can also be influenced by autophagosomal pH.

MCF7 cells = assay: Cell-cycle analysis by flow cytometry; format: cell-based, human
Procedure: Cell-cycle distribution analysis was carried out further to evaluate the effect of 5c on HDAC inhibition, as HDCA inhibitors are mainly known to target genes regulating the cell cycle. The 5c-treated MCF7 cells were subjected to cell-cycle analysis by flow cytometry.
Cell-cycle analysis was carried out using a cell-cycle analysis kit (Sigma-Aldrich, MAK344) according to the protocol given by the manufacturer. MCF7 cells were treated with DMSO or 0.1 μM and 1 μM concentrations of compound 5c and incubated for 48 h. Cells were then trypsinized and pelleted down. The pellets were washed with 1× cell-cycle buffer and fixed in ice-cold 70% ethanol for 1 h at 4 °C. The fixated cells were treated with ribonuclease A (RNase A) and stained with PI at room temperature for 30 min. Analysis was carried out using FlowJo 10.7.2..

acetyl-H3 = assay: Western blot of acetyl-H3 in MCF7 and HCT-116 cells; format: cell-based, human; conditions: compared to untreated control
HDAC4 = molecular target: T2, HDAC4 (Homo sapiens, UniProt P56524); assay: HDAC enzyme activity assay (fluorogenic, Boc-Lys(trifluoroacetyl)-AMC), HDAC4; format: biochemical; conditions: class IIa HDAC4; mean ± SD, triplicate
T2 construct: catalytic domain of HDAC4 (T648-T1057, full length: UniProt P56524); made in house; host or cells: E. coli BL21(DE3), pET14b vector
T2 sequence (P56524 648-1057): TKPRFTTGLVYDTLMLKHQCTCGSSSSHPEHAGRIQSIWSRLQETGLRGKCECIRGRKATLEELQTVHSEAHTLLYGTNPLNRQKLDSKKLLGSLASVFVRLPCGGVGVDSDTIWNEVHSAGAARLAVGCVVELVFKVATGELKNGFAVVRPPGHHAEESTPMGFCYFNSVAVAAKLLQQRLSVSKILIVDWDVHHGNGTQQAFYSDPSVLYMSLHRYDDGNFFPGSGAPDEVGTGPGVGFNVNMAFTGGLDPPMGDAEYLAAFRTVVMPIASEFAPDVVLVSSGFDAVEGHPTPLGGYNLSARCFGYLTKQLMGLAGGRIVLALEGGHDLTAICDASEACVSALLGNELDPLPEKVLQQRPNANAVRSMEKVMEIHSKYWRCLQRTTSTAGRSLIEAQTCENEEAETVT

HDAC8 = molecular target: T3, HDAC8 (Homo sapiens, UniProt Q9BY41); assay: HDAC enzyme activity assay (fluorogenic, Boc-Lys(trifluoroacetyl)-AMC), HDAC8; format: biochemical; conditions: class I HDAC8; mean ± SD, triplicate
T3 construct: codon-optimized full-length HDAC8; made in house; host or cells: E. coli BL21(DE3), pET14b vector
T3 sequence (Q9BY41 1-377): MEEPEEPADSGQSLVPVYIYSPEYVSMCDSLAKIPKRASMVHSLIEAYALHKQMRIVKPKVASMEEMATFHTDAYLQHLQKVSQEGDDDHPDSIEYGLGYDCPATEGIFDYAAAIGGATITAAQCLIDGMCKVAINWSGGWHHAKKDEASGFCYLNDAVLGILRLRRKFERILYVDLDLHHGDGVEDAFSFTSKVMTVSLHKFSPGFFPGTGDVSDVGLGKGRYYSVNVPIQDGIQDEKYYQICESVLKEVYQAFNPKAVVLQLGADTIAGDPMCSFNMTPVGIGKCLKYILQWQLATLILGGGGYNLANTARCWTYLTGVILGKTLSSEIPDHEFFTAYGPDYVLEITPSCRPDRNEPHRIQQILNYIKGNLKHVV

For `Cc1ccc(-n2c(SCc3ccc(C(=O)NO)cc3)nc3ccccc3c2=O)cc1` [Compound 5c, N-hydroxy-4-(((4-oxo-3-(p-tolyl)-3,4-dihydroquinazolin-2-yl)thio)methyl)benzamide], the IC50 (HDAC6) was 580 ± 50 nM, the IC50 (HCT116) was 12400 ± 1410 nM and the “apoptosis by acridine orange staining” value (MCF7 and HCT-116 cells) was “evidential apoptosis”. For the same molecule, the “cell population in G2/M phase” value (MCF7 cells; MCF7, 0.1 μM, 48 h) was “significant increase”, the “cell population in the G1 and S phases” value (MCF7 cells; MCF7, 0.1 μM, 48 h) was “slight reduction” and the “effect on cells at 1 μM” value (MCF7 cells; MCF7, 1 μM) was “necrosis and cell death”. For the same molecule, the “acetylation of H3” value (acetyl-H3) was “increase in acetylation of H3, but only at a higher concentration”, the IC50 (HDAC4) was 720 ± 210 nM and the IC50 (HDAC8) was 2300 ± 500 nM.
